The values below come from patent publication US9951076B2, “Deuterated pentylenetetrazoles for improving cognitive function” (Balance Therapeutics, Inc., priority 2011, dated 2018).

Where only a bound is given, the exact number is not on record here.

Data set [1] in a line: Metabolic stability in human liver microsomes. In kind it is in vitro ADME. The settings on record: for t1/2 increase over t1/2 of PTZ / in vitro t1/2 compared to the t1/2 of PTZ: human liver microsomes; for in vitro t1/2 compared to the t1/2 of PTZ: under the assay conditions tested; for half-life at 1 μM / microsomal CLint at 1 μM: pH 7.4, 1 mg/mL human liver microsomes, 1 μM test compound, NADPH regenerating system, 37° C., 0-45 min. The protocol: Human liver microsomes (Lot# FJM) were obtained from Celsis (Baltimore, Md.). Components of the NADPH regenerating system solution A (Lot#29850) and B (Lot#28594) were obtained from BD Gentest (Woburn, Mass.). […] All solvents and buffers were obtained from commercial sources and used without further purification.
NADPH regenerating system (1.3 mM NADP^+, 3.3 mM glucose-6-phosphate, 0.4 U/mL glucose-6-phosphate dehydrogenase, and 3.3 mM magnesium chloride) were prepared by mixing 5 volume of solution A and 1 volume of solution B and pre-warmed at 37° C. in a shaking water bath. Reactions were initiated by adding NADPH regenerating system to the incubation mixtures. After 0, 5, 10, 15, 30 and 45 min of incubation, 0.1 mL reaction mixtures were removed from the incubation plate and mixed with 0.15 mL of ice-cold acetonitrile in an appropriate well of a 96-well crash plate. The 96-well crash plate was placed on ice for 15 min, and samples were centrifuged (2,500 g, 10 min, 4° C.) to precipitate protein. The supernatants were diluted 1:1 (v/v) with water containing 0.015 μM verapamil (internal standard) in 96-well shallow injection plate, which was sealed and submitted for LC/MS or LC/MS/MS analysis utilitzing a API 150 single quadrupole mas spectrometer.
The residual compound remaining (% R) was determined from LC/MS peak areas by comparison to a zero time point. Metabolic half-life (t1/2) and intrinsic clearance (CLint) values were calculated from the slope of ln(%) plotted vs. time.
(Liver microsomes are vesicles of endoplasmic reticulum, rich in cytochrome P450 enzymes.)

For data set [2] the following is noted: cited from earlier work.
For data set [3] the following is noted: orally administered, humans; cited from earlier work.

On to `[2H]C1([2H])CC([2H])([2H])c2nnnn2C([2H])([2H])C1` [Compound 4, 6,6,8,8,10,10-d6-6,7,8,9-tetrahydro-5H-tetrazolo[1,5-a]-azepine], for which, in data set [1], the “t1/2 increase over t1/2 of PTZ” value came to 8.8%, the “in vitro t1/2 compared to the t1/2 of PTZ” value is given as “increased”, the half-life at 1 μM was determined as 9.45 h and the microsomal CLint at 1 μM is 1.2 µL/min/mg.

In the case of `[2H]C1([2H])CCCC([2H])([2H])n2nnnc21` [Compound 2, 6,6,10,10-d4-6,7,8,9-Tetrahydro-5H-tetrazolo[1,5-a]azepine], in data set [1], the “t1/2 increase over t1/2 of PTZ” value stood at 6.3%, the “in vitro t1/2 compared to the t1/2 of PTZ” value was “increased”, the half-life at 1 μM was determined as 9.23 h and the microsomal CLint at 1 μM was found to be 1.3 µL/min/mg.

Take `[2H]C1([2H])Cc2nnnn2CC([2H])([2H])C1([2H])[2H]` [Compound 3]: in data set [1], the “t1/2 increase over t1/2 of PTZ” value is recorded as −2.9%, the half-life at 1 μM came to 8.43 h and the intrinsic metabolic clearance (microsomal CLint) at 1 μM came to 1.4 µL/min/mg.

In turn, `C[C@]12CC[C@H]3[C@@H](CCC4=CC(=O)CC[C@@]43C)[C@@H]1CC[C@@H]2O` [testosterone, reference compound] showed a microsomal CLint at 1 μM in data set [1] of 76 µL/min/mg.

In data set [1], `C1CCc2nnnn2CC1` [PTZ, pentylenetetrazole] displayed a half-life at 1 μM of 8.68 h and a microsomal CLint at 1 μM of 1.3 µL/min/mg. The “time of peak concentration in blood” value in data set [2] (after intravenous (IV) or intraperitoneal (IP) delivery) is no more than 10 min. In addition, the plasma half-life entry in data set [2] (in vivo) is on record as “about 60 minutes”. Besides, in data set [3], the kindling dose result is recorded as “approximately 20 mg/kg”.

On to `[2H]C1([2H])c2nnnn2C([2H])([2H])C([2H])([2H])C([2H])([2H])C1([2H])[2H]` [Compound 1, d10-6,7,8,9-Tetrahydro-5H-tetrazolo[1,5-a]azepine], for which, in data set [1], the “t1/2 increase over t1/2 of PTZ” value is on record as 45.1%, the “in vitro t1/2 compared to the t1/2 of PTZ” value was “increased”, the half-life at 1 μM was 12.6 h and the intrinsic metabolic clearance (microsomal CLint) at 1 μM came to 0.9 µL/min/mg.

What is called half-life is how long it takes for the measured level to halve. A low value points to fast loss. The term microsomal CLint denotes the capacity of the preparation to metabolise the compound, expressed as a volume cleared per time. A low value points to slow turnover.
